Assay results published in patent US20090253634A1, “Methods and Compositions for the Treatment of Gastrointestinal Disorders” (MICROBIA, INC., priority 2005, published 2009).
Ends that are not written are not given here.

Columns and labels:
[1] = tested on: gastrointestinal transit; assay: murine gastrointestinal transit (GIT) assay, acute and chronic dosing; format: in vivo, mice; settings: for gastrointestinal transit rate: oral, SEQ ID NO:4 and Zelnorm 0.1 mg/kg, FIG. 3a, 3b; for intestinal transit rate, dose dependence: recombinantly synthesized peptides, FIG. 4a
Protocol: In order to determine whether the peptides increase the rate of gastrointestinal transit, the peptides and controls were tested using a murine gastrointestinal transit (GIT) assay (Moon et al. Infection and Immunity 25:127, 1979). In this assay, charcoal, which can be readily visualized in the gastrointestinal tract is administered to mice after the administration of a test compound. The distance traveled by the charcoal is measured and expressed as a percentage of the total length of the […].
Mice were fasted with free access to water for 12 to 16 hours before the treatment with peptide or control buffer. The peptides were orally administered at 1 μg/kg-1 mg/kg of peptide in buffer ([…] pH 7.5) 7 minutes before being given an oral dose of 5% Activated Carbon (Aldrich 242276-250G). Control mice were administered buffer only before being given a dose of Activated Carbon. After 15 minutes, the mice were sacrificed and their intestines from the stomach to the cecum were dissected. The total length of the intestine as well as the distance traveled from the stomach to the charcoal front was measured for each animal and the results are expressed as the percent of the total length of the intestine traveled by the charcoal front. All results are reported as the average of 10 mice±standard deviation. A comparison of the distance traveled by the charcoal between the mice treated with peptide versus the mice treated with vehicle alone was performed using a Student's t test and a statistically significant difference was considered for P<0.05. P-values are calculated using a two-sided T-Test assuming unequal variances.
The identical experiment was performed to determine if SEQ ID NO:3 is effective in a chronic dosing treatment regimen. Briefly, 8 week old CD1 female mice are dosed orally once a day for 5 days with either SEQ ID NO:3 (0.06 mg/kg or 0.25 mg/kg in 20 mM Tris pH 7.5) or vehicle alone (20 mM Tris pH 7.5). On the 5th day, a GIT assay is performed identical to that above except 200 μl of a 10% charcoal solution is administered. […] The results are shown side by side with acute dosing (1 day).

[2] = tested on: intestinal secretion; assay: suckling mouse model of intestinal secretion (SuMi assay); format: in vivo, suckling mice
Protocol: In this model a test compound is administered to suckling mice that are between 7 and 9 days old. After the mice are sacrificed, the gastrointestinal tract from the stomach to the cecum is dissected (“guts”). The remains (“carcass”) as well as the guts are weighed and the ratio of guts to carcass weight is calculated. If the ratio is above 0.09, one can conclude that the test compound increases intestinal secretion. […] The effect of Zelnorm® was also studied.

[3] = tested on: PBQ-induced writhing; assay: phenylbenzoquinone (PBQ)-induced writhing model
[4] = target: T1, intestinal GC-C receptor (Homo sapiens, UniProt P25092); assay: GC-C receptor activity assay (cyclic GMP) in T84 cells; format: cell-based; settings: chemically synthesized peptides, cyclic GMP by EIA
T1 construct: monolayers of T84 cells in 24-well plates; host or cells: T84 human colon carcinoma cells
T1 sequence (P25092 24-1073): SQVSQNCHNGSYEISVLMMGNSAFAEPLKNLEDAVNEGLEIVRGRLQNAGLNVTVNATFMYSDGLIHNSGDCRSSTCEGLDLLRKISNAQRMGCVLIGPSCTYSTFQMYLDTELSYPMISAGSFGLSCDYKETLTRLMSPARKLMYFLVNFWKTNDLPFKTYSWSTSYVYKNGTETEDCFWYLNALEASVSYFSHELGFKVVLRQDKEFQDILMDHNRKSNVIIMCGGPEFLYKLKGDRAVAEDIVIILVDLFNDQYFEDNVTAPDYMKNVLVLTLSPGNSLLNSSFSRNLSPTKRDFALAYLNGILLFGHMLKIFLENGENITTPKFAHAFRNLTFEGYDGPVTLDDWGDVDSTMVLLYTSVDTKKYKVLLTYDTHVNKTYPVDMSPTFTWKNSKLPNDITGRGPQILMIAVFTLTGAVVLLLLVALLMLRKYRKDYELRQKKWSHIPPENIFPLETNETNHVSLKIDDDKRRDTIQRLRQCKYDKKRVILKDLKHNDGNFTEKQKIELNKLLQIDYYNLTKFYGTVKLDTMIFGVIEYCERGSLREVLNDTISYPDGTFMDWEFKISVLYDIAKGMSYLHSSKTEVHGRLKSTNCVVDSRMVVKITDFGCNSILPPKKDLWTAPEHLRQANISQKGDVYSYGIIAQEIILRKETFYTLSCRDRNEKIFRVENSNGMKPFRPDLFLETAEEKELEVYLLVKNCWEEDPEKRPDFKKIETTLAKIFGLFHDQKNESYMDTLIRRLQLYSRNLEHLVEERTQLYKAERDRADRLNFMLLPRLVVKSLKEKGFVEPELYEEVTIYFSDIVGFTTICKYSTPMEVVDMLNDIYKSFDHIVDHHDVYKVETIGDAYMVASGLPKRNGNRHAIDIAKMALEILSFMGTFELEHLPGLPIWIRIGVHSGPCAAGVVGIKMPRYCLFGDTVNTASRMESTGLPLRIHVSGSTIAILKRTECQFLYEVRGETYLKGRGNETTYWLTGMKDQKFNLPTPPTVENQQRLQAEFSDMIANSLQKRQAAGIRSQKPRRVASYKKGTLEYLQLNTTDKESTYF
Protocol: The ability of SEQ ID NO:5, SEQ ID NO:4, SEQ ID NO:3, and SEQ ID NO:6 to activate the intestinal GC-C receptor was assessed in an assay employing the T84 human colon carcinoma cell line (American Type Culture Collection (Bethesda, Md.)). For the assays cells were grown to confluency in 24-well culture plates with a 1:1 mixture of Ham's F12 medium and Dulbecco's modified Eagle's medium (DMEM), supplemented with 5% fetal calf serum and were used at between passages 54 and 60.
Briefly, monolayers of T84 cells in 24-well plates were washed twice with 1 ml/well DMEM, then incubated at 37° C. for 10 min with 0.45 ml DMEM containing 1 mM isobutylmethylxanthine (IBMX), a cyclic nucleotide phosphodiesterase inhibitor, Test peptides (50 μl) were then added and incubated for 30 minutes at 37° C. The media was aspirated and the reaction was then terminated by the addition of ice cold 0.5 ml of 0.1N HCl. The samples were held on ice for 20 minutes and then evaporated to dryness using a heat gun or vacuum centrifugation.

[5] = target: T2, GC-C receptors found in rat intestinal mucosa (Rattus norvegicus, UniProt P23897); settings: same assay, observed by Giannella et al.; cited from earlier work
T2 construct: Epithelial cells from the small intestine of rats were obtained; from tissue; host or cells: rat small-intestinal mucosa / epithelial cell suspension
T2 sequence (P23897 23-1072): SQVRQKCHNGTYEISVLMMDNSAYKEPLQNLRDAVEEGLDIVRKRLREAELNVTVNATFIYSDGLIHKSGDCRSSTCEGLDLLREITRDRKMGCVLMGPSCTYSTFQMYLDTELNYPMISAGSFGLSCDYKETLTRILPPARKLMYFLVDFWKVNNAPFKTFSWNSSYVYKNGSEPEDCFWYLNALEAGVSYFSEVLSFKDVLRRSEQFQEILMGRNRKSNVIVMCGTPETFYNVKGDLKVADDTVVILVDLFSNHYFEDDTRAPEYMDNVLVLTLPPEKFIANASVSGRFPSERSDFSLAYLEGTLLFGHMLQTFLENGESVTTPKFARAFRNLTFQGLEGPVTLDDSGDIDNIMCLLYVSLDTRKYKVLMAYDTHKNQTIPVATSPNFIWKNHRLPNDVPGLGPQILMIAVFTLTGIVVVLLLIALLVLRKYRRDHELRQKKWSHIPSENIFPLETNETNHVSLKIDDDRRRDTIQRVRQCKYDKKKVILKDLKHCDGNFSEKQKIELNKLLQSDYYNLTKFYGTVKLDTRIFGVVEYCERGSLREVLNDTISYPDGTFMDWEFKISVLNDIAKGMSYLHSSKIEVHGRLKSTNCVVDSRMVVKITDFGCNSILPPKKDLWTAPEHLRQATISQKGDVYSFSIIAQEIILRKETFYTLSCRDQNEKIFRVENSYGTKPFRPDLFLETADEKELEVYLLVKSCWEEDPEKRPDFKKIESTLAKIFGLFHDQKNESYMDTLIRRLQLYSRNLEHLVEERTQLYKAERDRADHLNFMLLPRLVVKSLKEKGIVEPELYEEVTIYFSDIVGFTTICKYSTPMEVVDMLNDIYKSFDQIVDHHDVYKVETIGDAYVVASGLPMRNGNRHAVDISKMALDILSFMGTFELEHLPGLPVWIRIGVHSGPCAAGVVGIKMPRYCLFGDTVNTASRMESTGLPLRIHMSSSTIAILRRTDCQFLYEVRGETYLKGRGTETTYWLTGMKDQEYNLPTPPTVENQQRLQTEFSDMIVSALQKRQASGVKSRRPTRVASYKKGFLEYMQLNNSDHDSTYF

[6] = recombinant peptides, dose response, FIG. 6a

Compound | gastrointestinal transit rate ([1]; acute) | effect in mouse gastrointestinal motility assay upon chronic dosing ([1]; oral once a day for 5 days, SEQ ID NO:3 0.06 or 0.25 mg/kg, FIG. 4c) | intestinal secretion (guts to carcass weight ratio) ([2]; 0.2 mg/kg) | intestinal transit rate, dose dependence ([1]; acute) | intestinal secretion (guts to carcass weight ratio) [2, 6] | writhings versus vehicle control ([3]; 1 mg/kg dose, oral) | antinociceptive effect compared with indomethacin ([3]; PBQ writhing assay) | activity in GC-C receptor activity assay [4] | intestinal transit rates versus Tris buffer or equivalent dose of Zelnorm ([1]; acute, chemically synthesized peptides, FIG. 4b) | intestinal secretion (guts to carcass weight ratio) ([2]; dose response, wild-type ST purchased from TDT, FIG. 5a, 5b) | Kd [5]
[H]/N=C(/NCCCCC)N/N=C/c1c[nH]c2ccc(OC)cc12 [Zelnorm®, tegaserod] | increase gastrointestinal transit rate | effective | does not increase intestinal secretion | – | – | – | – | – | – | – | –
NSSNYCCEYCCNPACTGCY (cysteine pairing not given here) [SEQ ID NO:5] | – | – | – | increases with an increasing dosage | increase intestinal secretion | Significant reductions in writhings | antinociceptive effects in this visceral pain model comparable to the intermediate doses of indomethacin | – | – | – | –
NSSNYCCELCCNPACTGCY [SEQ ID NO:4] | increase gastrointestinal transit rate | – | – | increases with an increasing dosage | increase intestinal secretion | – | – | activity comparable to SEQ ID NO:4 | increase intestinal transit rates more than either Tris buffer alone or an equivalent dose of Zelnorm® | increase intestinal secretion | ~13 nM
